Experimental data: patent US20060275362A1, “Rapidly-dissolving pharmaceutical composition for inhibiting ovulation” (priority 2005, published 2006)

Experiment: Effect of Tween 80 on the solubility of drospirenone in water
Type: physicochemical
Conditions: Solubility enhancer Tween 80 (Polysorbate 80), drug:enhancer 1:9 parts by weight, agitated approximately 22 hours, versus water alone

% Increase in the Solubility of Drospirenone as Determined by HPLC: 42%
SMILES: C[C@]12CCC(=O)C=C1[C@@H]1C[C@@H]1[C@H]1[C@@H]3[C@@H]4C[C@@H]4[C@@]4(CCC(=O)O4)[C@@]3(C)CC[C@@H]12 [Drospirenone, (2′S, 6R, 7R, 8R, 9S, 10R, 13S, 14S, 15S, 16S)-1,3′, 4′, 6,7,8,9, 10, 11, 12, 13, 14, 15, 16, 20, 21-hexadecahydro-10, 13-dimethylspiro[17H-dicyclopropa[6,7:15,16]cyclopenta[a]phenanthrene-17,2′(5′H)-furan]-3,5′(2H)-dione]
